Holding throughout (assay): product titer in engineered yeast by UHPLC
Holding throughout (assay type): cell-based

Test [1] has as its target T1, MdOSC1 (α-amyrin synthase from Malus × domestica) (Malus domestica, UniProt C7SCX0).
T1 construct: gene OSC1; synthesized gene, one copy integrated in the genome of S. cerevisiae SP1, PGK1 promoter; whole-cell production
The settings on record: endogenous substrate of S. cerevisiae, not added; 30 °C, 72 h shake flask; mixed product with β-amyrin.

Test [2] addresses T2, OEW (lupeol synthase from Olea europaea) (Olea europaea, UniProt Q9SLW3).
T2 construct: synthesized gene, one copy integrated in the genome of S. cerevisiae SP1, PGK1 promoter; whole-cell production
T2 sequence (Q9SLW3 1-758): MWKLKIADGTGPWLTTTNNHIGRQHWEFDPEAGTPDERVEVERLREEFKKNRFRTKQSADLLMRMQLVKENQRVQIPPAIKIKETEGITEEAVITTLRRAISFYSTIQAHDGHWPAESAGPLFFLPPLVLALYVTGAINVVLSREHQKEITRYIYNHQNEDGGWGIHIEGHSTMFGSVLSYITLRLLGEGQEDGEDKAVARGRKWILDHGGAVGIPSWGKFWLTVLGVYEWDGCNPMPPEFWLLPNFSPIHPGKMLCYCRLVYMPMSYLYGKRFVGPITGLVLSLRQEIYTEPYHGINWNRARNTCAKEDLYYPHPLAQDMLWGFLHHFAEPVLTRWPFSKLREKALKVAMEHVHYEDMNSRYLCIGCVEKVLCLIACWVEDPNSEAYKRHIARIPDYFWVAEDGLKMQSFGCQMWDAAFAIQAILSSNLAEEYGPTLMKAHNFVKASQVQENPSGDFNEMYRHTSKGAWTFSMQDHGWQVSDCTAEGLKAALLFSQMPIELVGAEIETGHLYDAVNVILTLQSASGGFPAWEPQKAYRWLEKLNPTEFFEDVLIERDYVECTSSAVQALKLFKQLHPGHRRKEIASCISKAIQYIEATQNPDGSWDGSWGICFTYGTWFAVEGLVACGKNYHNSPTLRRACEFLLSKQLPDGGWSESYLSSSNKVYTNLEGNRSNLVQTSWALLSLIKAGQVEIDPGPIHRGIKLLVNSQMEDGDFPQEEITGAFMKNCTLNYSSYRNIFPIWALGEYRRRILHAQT
The settings on record: endogenous substrate of S. cerevisiae, not added; 30 °C, 72 h shake flask.

In test [3] the target is T3, GgbAS (β-amyrin synthase from Glycyrrhiza glabra) (Glycyrrhiza glabra, UniProt Q9MB42).
T3 construct: gene bAS1; synthesized gene, one copy integrated in the genome of S. cerevisiae SP1, PGK1 promoter; whole-cell production
T3 sequence (Q9MB42 whole entry): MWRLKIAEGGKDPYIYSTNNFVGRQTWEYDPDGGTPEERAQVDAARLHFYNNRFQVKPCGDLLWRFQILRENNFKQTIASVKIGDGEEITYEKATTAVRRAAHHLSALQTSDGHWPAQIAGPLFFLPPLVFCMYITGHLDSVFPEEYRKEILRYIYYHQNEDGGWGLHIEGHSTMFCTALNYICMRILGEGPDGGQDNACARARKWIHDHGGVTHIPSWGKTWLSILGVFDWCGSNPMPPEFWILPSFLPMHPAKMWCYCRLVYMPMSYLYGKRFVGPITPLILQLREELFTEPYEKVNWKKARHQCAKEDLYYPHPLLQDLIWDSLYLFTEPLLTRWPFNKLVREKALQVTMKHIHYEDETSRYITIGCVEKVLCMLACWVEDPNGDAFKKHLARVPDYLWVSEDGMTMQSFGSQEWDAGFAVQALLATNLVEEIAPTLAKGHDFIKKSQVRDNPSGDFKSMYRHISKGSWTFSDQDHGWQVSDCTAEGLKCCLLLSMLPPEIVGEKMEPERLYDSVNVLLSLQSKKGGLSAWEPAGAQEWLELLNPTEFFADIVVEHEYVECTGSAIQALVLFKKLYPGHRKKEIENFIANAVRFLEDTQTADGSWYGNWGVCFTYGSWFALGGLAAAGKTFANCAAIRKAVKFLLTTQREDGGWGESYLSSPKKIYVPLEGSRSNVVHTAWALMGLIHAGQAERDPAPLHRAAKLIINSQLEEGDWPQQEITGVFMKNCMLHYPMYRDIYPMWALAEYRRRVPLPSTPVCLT
The settings on record: endogenous substrate of S. cerevisiae, not added; 30 °C, 72 h shake flask.

The source of these data is publication PMC10850208, “Engineering amino acid residues of pentacyclic triterpene synthases for improving the activity” (Applied Microbiology and Biotechnology, 2024).

T1 sequence (C7SCX0 entry or part of it): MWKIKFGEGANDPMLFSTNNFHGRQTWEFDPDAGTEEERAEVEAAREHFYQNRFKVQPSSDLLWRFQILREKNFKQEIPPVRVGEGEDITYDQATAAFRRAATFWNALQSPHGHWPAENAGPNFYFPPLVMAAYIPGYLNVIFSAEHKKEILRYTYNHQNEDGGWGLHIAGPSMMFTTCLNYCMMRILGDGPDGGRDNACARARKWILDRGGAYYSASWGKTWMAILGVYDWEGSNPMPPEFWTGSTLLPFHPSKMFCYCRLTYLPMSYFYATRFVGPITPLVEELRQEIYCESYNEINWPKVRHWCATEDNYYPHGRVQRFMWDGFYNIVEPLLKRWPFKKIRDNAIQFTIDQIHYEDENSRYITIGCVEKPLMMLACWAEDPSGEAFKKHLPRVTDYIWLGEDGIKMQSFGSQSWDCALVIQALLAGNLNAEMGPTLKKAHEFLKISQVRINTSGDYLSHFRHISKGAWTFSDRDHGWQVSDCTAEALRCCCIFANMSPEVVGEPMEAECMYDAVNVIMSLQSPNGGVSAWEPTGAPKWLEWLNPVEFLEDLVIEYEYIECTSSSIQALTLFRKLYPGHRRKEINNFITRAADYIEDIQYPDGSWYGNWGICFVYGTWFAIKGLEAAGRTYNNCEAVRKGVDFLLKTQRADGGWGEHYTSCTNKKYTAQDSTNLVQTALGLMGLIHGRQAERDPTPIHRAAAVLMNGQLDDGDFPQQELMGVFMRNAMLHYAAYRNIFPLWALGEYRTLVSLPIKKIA

On to `C[C@H]1[C@H](C)CC[C@]2(C)CC[C@]3(C)C(=CC[C@@H]4[C@@]5(C)CC[C@H](O)C(C)(C)[C@@H]5CC[C@]43C)[C@H]12` [α-amyrin], for which the “product titer in engineered yeast by UHPLC” value (“product titer” below) in test [1] was “increase in the titer of α-amyrin and β-amyrin, compared with these of the strain SP1”.

With `C=C(C)[C@@H]1CC[C@]2(C)CC[C@]3(C)[C@H](CC[C@@H]4[C@@]5(C)CC[C@H](O)C(C)(C)[C@@H]5CC[C@]43C)[C@@H]12` [lupeol], the “product titer” value in test [2] is recorded as “increase in the production of lupeol compared with that of the strain SP1 harboring”.

`CC1(C)CC[C@]2(C)CC[C@]3(C)C(=CC[C@@H]4[C@@]5(C)CC[C@H](O)C(C)(C)[C@@H]5CC[C@]43C)[C@@H]2C1` [β-amyrin]: the “product titer” value in test [3] was “higher titer and specific titer of β-amyrin than these of strain SP1 harboring the wild-type GgbAS”.
